The values below come from article PMC10051477, “5,8-Dimethyl-9H-carbazole Derivatives Blocking hTopo I Activity and Actin Dynamics” (Pharmaceuticals, 2023).

One assay concerns MCF-10A cells. As to the kind of experiment: MTT assay, MCF-10A normal cell viability. Format: cell-based, human. To be noted: 72 h, non-malignant breast epithelial cells, mean ± standard deviation. The protocol: (§1) The inhibition of cancer cell growth exerted by the five considered compounds (1–5) has been evaluated in vitro against two models of breast cancer, namely the estrogen receptor positive (ER+) MCF-7 and the triple negative MDA-MB-231 human breast cancer cells (lacking ER, PR, and HER-2/Neu amplification), together with the normal counterpart, namely the non-malignant breast epithelial cells MCF-10A. […] Moreover, no effects were recorded against the MCF-7 cells, at least until the concentration of 100 μM. […] Thus, the two lead compounds were chosen for subsequent studies aiming at individuating the molecular mechanisms underlying the observed anticancer activity.
(§2) MTT assays (Sigma Aldrich (St.Louis, MO, USA)) were employed to evaluate the in vitro anticancer activities of all the studied compounds, as previously described. The compounds were tested at different concentrations (0.1-1-10-25-50-100 μM) for 72 h. The IC50 values were calculated from the percent (%) of control using GraphPad Prism 9 (GraphPad Software, La Jolla, CA, USA).
(In general: Formazan colour is commonly taken as a measure of viable cells.)

For assay [1], the system named is MDA-MB-231 cells. Kind of assay: TUNEL assay (apoptosis). Format: cell-based, human. To be noted: MDA-MB-231, 24 h, concentration equal to IC50 values. As to the method:
Having individuated two intracellular targets, we wondered whether the lead compounds could induce apoptosis in MDA-MB-231 cells. Thus, we performed a TUNEL assay. […] Indeed, the exposure to both compounds produced a green nuclear fluorescence, already at 24 h, in MDA-MB-231 cells (Figure 6, 3 and 4, panels B, CF^TM488A) as a consequence of the damaged DNA. […] The overlay channel (Figure 6, panels C) is also shown.
TUNEL assay was employed to assess the cells apoptosis, following the manufacturer’s protocols (CF™488A TUNEL Assay Apoptosis Detection Kit, Biotium, Hayward, CA, USA) with few revisions. Briefly, the cells were plated and then additional processed as previously described. DAPI (0.2 μg/mL, Sigma Aldrich, Milan, Italy) was used for nuclei staining. A fluorescence microscope (Leica DM 6000) was used for fluorescence detection (20× magnification). LAS-X software allowed acquiring and processing all the fluorescence images, which are representative of three separate experiments.

For assay [2], the system named is actin system in MDA-MB-231 cells. Kind of assay: Actin immunofluorescence in MDA-MB-231 cells. Type of assay: cell-based, human. To be noted: MDA-MB-231, 24 h; compounds at their IC50 values, LA 0.1 µM. The protocol:
In order to determine whether the lead compounds 3 and 4 may effectively regulate the actin system, we employed both the immunofluorescence and in vitro direct enzymatic assays. […] As negative and positive controls, we used the only vehicle (DMSO) and latrunculin A (LA) at a concentration of 0.1 µM, respectively. After processing, the cells were observed under a fluorescent microscope, (see experimental section for the details). […] Moreover, the latter looked brighter and stocked in the cytoplasm in dot-like structures or thicker fibers. Again, the MDA-MB-231 cells, under exposure to compounds 3 and 4, lost their shape (Figure 4, compounds 3 and 4, panels B), as we observed under LA treatment, and with a very similar arrangement of the actin network.
The cells were plated and further processed, as previously indicated. Specifically, the rabbit anti-β-Actin (Santa Cruz Biotechnology, Dallas, TX, USA), diluted 1:100 in bovine serum albumin (BSA) 2%, was used as primary antibody and incubated overnight at 4 °C. The secondary antibody, Alexa Fluor® 488 conjugate goat-anti-rabbit, was diluted 1:500 and incubated for 2 h at 37 °C. DAPI (4′,6-diamidino-2-phenylindole, Sigma Aldrich, Milan, Italy) 0.2 μg/mL was used for nuclei staining. A fluorescence microscope (Leica DM 6000) was utilized for fluorescence detection (40× magnification). LAS-X software allowed acquiring and processing all the fluorescence images, which are representative of three separate experiments.

The subject of assay [3] is MDA-MB-231 cells. As to the kind of experiment: MTT assay, MDA-MB-231 cell viability. Format: cell-based. To be noted: Homo sapiens, 72 h, mean ± standard deviation. The protocol:
as §1, §2

For the next assay, the target named is T1, hTopo II (Homo sapiens, UniProt P11388).
T1 construct: purchased TopoGEN
T1 sequence (P11388 whole entry): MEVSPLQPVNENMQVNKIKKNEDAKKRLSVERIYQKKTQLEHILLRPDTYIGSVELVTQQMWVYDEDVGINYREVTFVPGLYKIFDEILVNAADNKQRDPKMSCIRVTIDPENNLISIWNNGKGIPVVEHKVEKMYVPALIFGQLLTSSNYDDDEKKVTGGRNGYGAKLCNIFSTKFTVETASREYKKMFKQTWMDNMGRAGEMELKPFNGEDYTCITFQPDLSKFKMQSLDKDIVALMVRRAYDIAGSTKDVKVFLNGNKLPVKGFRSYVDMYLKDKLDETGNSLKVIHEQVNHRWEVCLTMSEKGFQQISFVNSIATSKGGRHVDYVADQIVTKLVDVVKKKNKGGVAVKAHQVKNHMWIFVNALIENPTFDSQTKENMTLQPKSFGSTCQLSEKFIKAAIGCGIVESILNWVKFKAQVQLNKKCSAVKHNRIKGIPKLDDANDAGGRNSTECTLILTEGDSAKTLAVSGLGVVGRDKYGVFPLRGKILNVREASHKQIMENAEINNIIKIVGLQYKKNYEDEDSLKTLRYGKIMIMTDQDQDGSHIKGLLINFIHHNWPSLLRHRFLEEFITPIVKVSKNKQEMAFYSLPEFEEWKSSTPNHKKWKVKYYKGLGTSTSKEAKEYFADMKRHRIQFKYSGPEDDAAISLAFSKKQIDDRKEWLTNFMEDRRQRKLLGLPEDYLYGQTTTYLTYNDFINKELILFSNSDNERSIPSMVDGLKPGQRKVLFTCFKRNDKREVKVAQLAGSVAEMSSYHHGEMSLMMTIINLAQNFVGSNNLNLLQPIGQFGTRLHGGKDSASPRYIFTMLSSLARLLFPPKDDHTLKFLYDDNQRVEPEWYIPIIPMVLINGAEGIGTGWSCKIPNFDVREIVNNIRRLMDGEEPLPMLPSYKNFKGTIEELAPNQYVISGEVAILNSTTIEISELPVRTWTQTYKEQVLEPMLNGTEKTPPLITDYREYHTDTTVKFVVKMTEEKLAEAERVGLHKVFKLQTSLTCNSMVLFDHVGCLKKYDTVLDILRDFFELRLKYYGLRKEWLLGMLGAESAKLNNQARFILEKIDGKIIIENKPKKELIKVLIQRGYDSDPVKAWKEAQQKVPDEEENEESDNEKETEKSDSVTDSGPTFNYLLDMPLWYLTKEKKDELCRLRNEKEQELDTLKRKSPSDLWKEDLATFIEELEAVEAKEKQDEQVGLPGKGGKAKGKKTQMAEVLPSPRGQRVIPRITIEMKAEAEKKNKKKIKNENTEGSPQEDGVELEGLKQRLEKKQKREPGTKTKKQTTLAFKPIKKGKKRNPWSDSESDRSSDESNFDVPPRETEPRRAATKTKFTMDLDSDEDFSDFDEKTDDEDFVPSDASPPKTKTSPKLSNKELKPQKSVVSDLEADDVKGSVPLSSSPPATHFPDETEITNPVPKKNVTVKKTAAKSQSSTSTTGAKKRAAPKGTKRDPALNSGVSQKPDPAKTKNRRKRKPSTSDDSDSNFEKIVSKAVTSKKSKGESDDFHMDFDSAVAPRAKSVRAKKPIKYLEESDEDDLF
As to the kind of experiment: hTopo II decatenation assay. Type of assay: biochemical. To be noted: compound at 10 μM, kDNA, agarose gel. The protocol: Next, we screened all the compounds for their activity against the hTopo II but, in this case, none of the tested compounds have been able to block the decatenation activity at the concentration of […] (Figure 3b, lanes 4 and 5). […] Indeed, two bands related to the DNA decatenation products are present at the bottom of the agarose gel, which denote the enzyme full activity, both in the control (only vehicle, Figure 3b, lane 3) and the tested compound reactions (Figure 3b, lanes 4–7).
Similarly, hTopo II decatenation assays were carried out, as indicated in the manufacturer’s procedures (TopoGEN, Port Orange, FL, USA) with some revisions.
hTopo II decatenation assays were performed in a final volume of 20 μL: 0.3 μg of kinetoplast DNA (kDNA) was added to a solution containing 1× assay buffer (50 mM Tris-HCl, pH of 8, 150 mM NaCl, 10 mM MgCl2, 0.5 mM Dithiothreitol (DTT), 30 μg/mL bovine serum albumin (BSA), 1 mM ATP) and the tested compounds. The mix was incubated for 15 min at 37 °C. Then, the reaction was started by adding 3 U of hTopo II and incubating at 37 °C for 1 h. Then, 5× stop buffer was added and the samples were treated as described in the previous paragraph. The aqueous phase was loaded on a 1% agarose gel containing 1× TAE buffer with EB (0.5 μg/mL) and visualized using an UV transilluminator.

The IC50 is the midpoint of a concentration-inhibition curve. The low end stands for greater potency, the high end for weaker potency. On to `Cc1ccc(C)c2c1c1cc(B(O)O)ccc1n2C(=O)OC(C)(C)C` [Compound 3], for which the IC50 in the assay with MCF-10A cells is 51.9 ± 0.88 µM; with MCF-10A cells (Homo sapiens, MCF-10A), roughly 52 µM; with MDA-MB-231 cells [3], 1.44 ± 0.97 µM. In addition, in the assay with MDA-MB-231 cells [1], the “Apoptosis induction (TUNEL, green nuclear fluorescence)” value is given as “able to trigger apoptosis”. Further, the “Effect on actin organization (immunofluorescence)” value in assay [2] is “interfere with the normal actin organization”. In addition, the “Inhibition of hTopo II decatenation activity” value on hTopo II is “no inhibitory activity”.
As to `Cc1ccc(C)c2c1c1cc(O)ccc1n2C(=O)OC(C)(C)C` [Compound 4], the IC50 with MCF-10A cells (Homo sapiens, MCF-10A) was greater than 100 µM; in the assay with MDA-MB-231 cells [3], 0.73 ± 0.74 µM. Also, in the assay with MDA-MB-231 cells [1], the “Apoptosis induction (TUNEL, green nuclear fluorescence)” value is reported as “able to trigger apoptosis”. For the same molecule, the “Effect on actin organization (immunofluorescence)” value in assay [2] was “interfere with the normal actin organization”. In addition, the “Inhibition of hTopo II decatenation activity” value on hTopo II was “no inhibitory activity”.
